Test results published in BindingDB's records for doi:10.1016/j.bmc.2014.11.013 (University Medical Center Groningen, 2014).
pIC50: −log10 of the molar value.

Test: Inhibition of human recombinant ADAM17 using Mca-PLAQAV-Dpa-RSSSR-NH2

Compound	pIC50
CC(C)C[C@H](CC(=O)NO)C(=O)N[C@@H](Cc1ccccc1)C(=O)N[C@@H](CCCCNC(=O)c1ccc(F)cc1)C(N)=O	7.60
CC(C)C[C@H](CC(=O)NO)C(=O)N[C@@H](Cc1ccccc1)C(=O)N[C@@H](CCCCN)C(N)=O	8.24
